A short description of one data set: log P by HPLC. Type of data set: physicochemical. The following applies: EEC directive 79/831 Annex V. A8 by HPLC (gradient method, acetonitrile/0.1% aqueous phosphoric acid).
`Cc1nc2nc(Cl)c(-c3c(F)cccc3F)c(N3CCC(Br)CC3)n2n1` [compound 319] gave a log partition coefficient (logP) of 3.33.
Same read-out and setting: the figure for `Cc1nc2nc(Cl)c(-c3ccc(F)cc3F)c(NC(C)C(F)(F)F)n2n1` (single isomer, unassigned) [compound 360] is 2.96.
`Cc1nc2nc(Cl)c(-c3c(F)cccc3F)c(NC3CCCCC3C(F)(F)F)n2n1` (stereo not drawn) [compound 425] registered a lipophilicity (logP) of 3.52.
On the same count and under the same terms, the figure for `Cc1nc2nc(Cl)c(-c3c(F)cccc3F)c(N3CCCCC3C(F)(F)F)n2n1` (stereo not drawn) [compound 423] is 3.33; for `CCCN(CC1CCCCO1)c1c(-c2c(F)cccc2F)c(Cl)nc2nc(C)nn12` (stereo not drawn) [compound 346] it is 3.95.
On the same count and under the same terms, the figure for `Cc1nc2nc(Cl)c(-c3ccccc3F)c(N3CCCCC3)n2n1` [compound 384] is 3.19.
Same read-out and setting: the figure for `C=CCN(CC)c1c(-c2c(F)cccc2Cl)c(Cl)nc2nc(C)nn12` [compound 267] is 3.59.
In turn, `Cc1ccc(Nc2c(-c3ccc(F)cc3F)c(Cl)nc3nc(C)nn23)cc1` [compound 298] came in with a logP of 3.05.
`COC(=O)C1CCN(c2c(-c3ccc(F)cc3F)c(Cl)nc3nc(C)nn23)CC1` [compound 292] returned a logP of 2.78.
The same measure, in the same setting: the figure for `Cc1nc2nc(Cl)c(-c3c(F)cccc3Cl)c(N3CCC(C(F)(F)F)CC3)n2n1` [compound 261] is 3.72; for `Fc1cc(F)c(-c2c(Cl)nc3nc(C4CC4)nn3c2N2CCOCC2)c(F)c1` [compound 475] it is 3.02; for `CNc1c(-c2c(F)cccc2F)c(Cl)nc2nc(C)nn12` [compound 422] it is 2.03.
On the same count and under the same terms, the figure for `Clc1ccccc1-c1c(Cl)nc2nc(C3CC3)nn2c1N1CCCCO1` [compound 484] is 3.71.
Same read-out and setting: the figure for `Fc1cccc(Cl)c1-c1c(Cl)nc2nc(C3CC3)nn2c1NCC1CC1` [compound 482] is 3.4; for `Cc1nc2nc(Cl)c(-c3ccccc3F)c(NOCC(C)C)n2n1` [compound 361] it is 2.98.
`Cc1nc2nc(Cl)c(-c3ccccc3F)c(NC3CCCCC3C(F)(F)F)n2n1` (stereo not drawn) [compound 398] showed a logP of 3.49.
On the same count and under the same terms, the figure for `Cc1nc2nc(Cl)c(-c3ccccc3F)c(NCC(F)(F)F)n2n1` [compound 391] is 2.53; for `C=CCONc1c(-c2ccccc2F)c(Cl)nc2nc(C)nn12` [compound 373] it is 2.42; for `FC(F)(F)CNc1c(-c2ccccc2Cl)c(Cl)nc2nc(C3CC3)nn12` [compound 500] it is 3.22.
The same measure, in the same setting: the figure for `CNc1c(-c2ccccc2F)c(Cl)nc2nc(C)nn12` [compound 389] is 2.02.

The same data set, now with this note: HPLC, gradient method, acetonitrile/0.1% aqueous phosphoric acid; EEC directive 79/831 Annex V. A8.
`Cc1nc2nc(Cl)c(-c3c(F)cc(F)cc3F)c(NCC(F)(F)F)n2n1` [compound 13] returned a logP of 2.69.
On the same count and under the same terms, the figure for `COCCN(C)c1c(-c2ccccc2Cl)c(Cl)nc2nc(C)nn12` [compound 222] is 2.64.
Consider `CCN(Cc1ccco1)c1c(-c2ccc(F)cc2F)c(Cl)nc2nc(C3CC3)nn12` [compound 592], for which the logP was 3.97.
`CCCN(CCOC)c1c(-c2ccc(F)cc2F)c(Cl)nc2nc(C3CC3)nn12` [compound 602]: the logP is 3.84.
Same read-out and setting: the figure for `C=C(C)CNc1c(-c2c(F)cc(F)cc2F)c(Cl)nc2nc(C(F)(F)F)nn12` [compound 22] is 3.82; for `Cc1nc2nc(Cl)c(-c3c(F)cc(F)cc3F)c(N3CCCC3)n2n1` [compound 59] it is 2.86; for `Cc1nc2nc(Cl)c(-c3ccc(F)c(Cl)c3)c(NC(C)C(F)(F)F)n2n1` (stereo not drawn) [compound 97] it is 3.32.
Still for that read-out and setting: the figure for `CCCN(CC1CC1)c1c(-c2c(F)cc(F)cc2F)c(Cl)nc2nc(C)nn12` [compound 162] is 4.08; for `CN(CCCl)c1c(-c2ccc(F)cc2F)c(Cl)nc2nc(C3CC3)nn12` [compound 721] it is 3.5; for `Cc1nc2nc(Cl)c(-c3c(F)cccc3F)c(N3CCOCC3)n2n1` [compound 176] it is 2.2.
On the same count and under the same terms, the figure for `CC1CN(c2c(-c3c(F)cc(F)cc3F)c(Cl)nc3nc(C(F)(F)F)nn23)CC(C)O1` (stereo not drawn) [compound 101] is 4.18; for `CC(C)=NN(CC(C)C)c1c(-c2c(F)cccc2F)c(Cl)nc2nc(C3CC3)nn12` [compound 787] it is 4.21; for `CCN(CC)c1c(-c2c(F)cc(F)cc2F)c(Cl)nc2nc(C)nn12` [compound 63] it is 3.23.
As for `C=C(C)CNc1c(-c2ccc(F)cc2Cl)c(Cl)nc2nc(C3CC3)nn12` [compound 626], the logP is recorded as 3.59.
`C=C(C)CN(CC)c1c(-c2c(F)cccc2F)c(Cl)nc2nc(C3CC3)nn12` [compound 752] registered a log partition coefficient (logP) of 4.31.
Same read-out and setting: the figure for `C=C(C)CN(CC)c1c(-c2c(F)cccc2Cl)c(Cl)nc2nc(C)nn12` [compound 114] is 3.91; for `COC(=O)C1CCCCN1c1c(-c2ccc(F)cc2F)c(Cl)nc2nc(C3CC3)nn12` (stereo not drawn) [compound 733] it is 3.92.
Same read-out and setting: the figure for `CCN(CCOC)c1c(-c2ccc(F)cc2F)c(Cl)nc2nc(C3CC3)nn12` [compound 594] is 3.46; for `CCCN(CCCN)c1c(-c2ccc(F)cc2F)c(Cl)nc2nc(C3CC3)nn12` [compound 726] it is 1.61.
Same read-out and setting: the figure for `Cc1nc2nc(Cl)c(-c3ccccc3Cl)c(N(C)CC3OCCO3)n2n1` [compound 219] is 2.62; for `Cc1nc2nc(Cl)c(-c3ccc(F)cc3F)c(N3CCCCO3)n2n1` [compound 576] it is 2.95; for `Fc1cccc(F)c1-c1c(Cl)nc2nc(C3CC3)nn2c1N1CCCCO1` [compound 753] it is 3.47.
Compound `CC1CC(C)CN(c2c(-c3ccc(F)cc3F)c(Cl)nc3nc(C4CC4)nn23)C1` (stereo not drawn) [compound 610] registered a logP of 4.72.
Same read-out and setting: the figure for `C#CCN(C)c1c(-c2ccc(F)cc2F)c(Cl)nc2nc(C3CC3)nn12` [compound 662] is 3.21.
The same measure, in the same setting: the figure for `Cc1nc2nc(Cl)c(-c3c(F)cc(F)cc3F)c(NC(C)C)n2n1` [compound 26] is 2.71; for `CCCN(CC1CCCCO1)c1c(-c2ccc(F)cc2F)c(Cl)nc2nc(C3CC3)nn12` (stereo not drawn) [compound 599] it is 4.71.
Compound `Fc1ccc(Nc2c(-c3ccc(F)cc3F)c(Cl)nc3nc(C(F)(F)F)nn23)cc1` [compound 814] registered a logP of 3.69.
In the case of `Fc1ccc(-c2c(Cl)nc3nc(C(F)(F)F)nn3c2NCCC(F)(F)F)c(F)c1` [compound 529], the logP was determined as 3.7.
On the same count and under the same terms, the figure for `Fc1ccc(-c2c(Cl)nc3nc(C4CC4)nn3c2NCC2CC2)c(Cl)c1` [compound 625] is 3.63.
The same measure, in the same setting: the figure for `CC1CCCN1c1c(-c2c(F)cccc2F)c(Cl)nc2nc(C3CC3)nn12` (stereo not drawn) [compound 678] is 3.68; for `Fc1cccc(Cl)c1-c1c(Cl)nc2nc(C3CC3)nn2c1N1CCCCC1` [compound 708] it is 4.19; for `Cc1nc2nc(Cl)c(-c3c(F)cc(F)cc3F)c(N3CCOCC3)n2n1` [compound 89] it is 2.43.
Take `COC(CN(C)c1c(-c2ccc(F)cc2F)c(Cl)nc2nc(C3CC3)nn12)OC` [compound 666]: the lipophilicity (logP) was 3.24.
The same measure, in the same setting: the figure for `Fc1ccc(-c2c(Cl)nc3nc(C(F)(F)F)nn3c2N2CCC3(CC2)OCCO3)c(F)c1` [compound 796] is 3.8.

For orientation: logP means a log measure of how a compound divides between an organic and an aqueous phase. Read a low logP as a more hydrophilic compound.

For the origin of these results see patent US7186831B2, “5-halo-2-alkyl[1,2,4]triazolo[1,5-a]pyrimidin-7-amines” (priority 2001, dated 2007).
